What all share (assay): growth of human tumour cells (NCI), 48 h
Experiment [1] concerns SR.
For experiment [2], the system named is KM12.
In experiment [3] the test system is Malme-3M.
The test system of experiment [4] is OVCAR-5.
In experiment [5] the test system is SF-539.
Experiment [6] deals with TK-10.
The test system of experiment [7] is SK-OV-3.
The subject of experiment [8] is UACC-257.
The subject of experiment [9] is MOLT-4.
Experiment [10] deals with CCRF-CEM.
Experiment [11] concerns COLO 205.
For experiment [12], the system named is RPMI-8226.
Experiment [13] concerns SK-MEL-2.
The subject of experiment [14] is SW-620.
For experiment [15], the system named is HCT-15.
Experiment [16] deals with NCI-H23.
For experiment [17], the system named is Hs-578T.
Experiment [18] deals with BT-549.

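These data come from cells grown in 96-well plates and exposed to compound for 48 hours at five concentrations. GI50 = concentration required for 50% inhibition of growth.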 Activity calls are given as the source filed them. No stated cut-off is given here; in the data, active = GI50 up to about 1.1 µM and inactive = higher. Residues, ends and D or L forms follow the SMILES beside them. A value given as a limit tells only on which side of the number the result lay.

On to `Cc1ccc(C(=O)OC[C@H]2CC[C@@H](n3cc(N(C)C4CCCCC4)c(=O)[nH]c3=O)O2)cc1`, for which the GI50 in [1] is 95.7 µM (inactive); in experiment [2], 19.6 µM (inactive); in [3], 24.7 µM (inactive); in experiment [4], 26.6 µM (inactive); in experiment [5], 23.8 µM (inactive); in [6], 30 µM (inactive). Further, the GI50 was 8.28 µM (inactive) in [7]; 32.7 µM (inactive) in experiment [8]; 30 µM (inactive) in experiment [9]; 27.4 µM (inactive) in [10]; 19.1 µM (inactive) in experiment [11]; 31.4 µM (inactive) in experiment [12]. The GI50 was 85.7 µM (inactive) in experiment [13]; 40 µM (inactive) in [14]; 24.5 µM in experiment [15]; 43.9 µM (inactive) in experiment [16]; 35.8 µM (inactive) in experiment [17].

As to `CC(=O)NC(CO)C(=O)NC(Cc1ccc(O)cc1)C(=O)NCC(N)=O` (stereo not drawn) (Ac-Ser-Tyr-Gly-NH2; configuration not given here), the GI50 in experiment [1], in experiment [2], in experiment [3], in [4], in experiment [5] and in [6] was > 100 µM (inactive) throughout. Besides, the GI50 in experiment [7], in [8], in experiment [9], in experiment [10], in experiment [11] and in experiment [12] was > 100 µM (inactive) throughout. Besides, the GI50 is > 100 µM (inactive) in experiment [13]; > 100 µM (inactive) in experiment [14]; above 100 µM in experiment [15]; > 100 µM (inactive) in experiment [16]; > 100 µM (inactive) in experiment [18].

Take `CC(C)=C=CC(C)(C)NS(=O)(=O)NC(C)(C)C=C=C(C)C`: the GI50 in [1] is 18.4 µM (inactive); in [2] it was > 100 µM (inactive); in experiment [3], > 100 µM (inactive); in experiment [4], > 100 µM (inactive); in [5] it was > 100 µM (inactive); in [6] it was > 100 µM (inactive). In addition, the GI50 in experiment [7] was > 100 µM (inactive); in experiment [8], > 100 µM (inactive); in experiment [11] it was > 100 µM (inactive); in experiment [13], > 100 µM (inactive); in [14], > 100 µM (inactive); in experiment [15], above 100 µM. For the same compound, the GI50 in experiment [16] and in [17] was > 100 µM (inactive) each time.

In the case of `COc1cc(/C=C2\C(=O)N(c3ccc(NC(C)=O)cc3)C(c3ccccc3)S2(=O)=O)cc(OC)c1OC` (stereo unspecified), the GI50 in experiment [1] was 36.7 µM (inactive); in experiment [2] it was > 100 µM (inactive); in experiment [3], > 100 µM (inactive); in experiment [4] it was > 100 µM (inactive); in experiment [5], > 100 µM (inactive); in [6] it was > 100 µM (inactive). The GI50 in [7] is > 100 µM (inactive); in [8], > 100 µM (inactive); in experiment [9], 25.1 µM (inactive); in experiment [10] it was 44.5 µM (inactive); in [11] it was > 100 µM (inactive); in experiment [12] it was 60.8 µM (inactive). Further, the GI50 in [13] is > 100 µM (inactive); in experiment [14], > 100 µM (inactive); in experiment [15] it was above 100 µM; in [16] it was > 100 µM (inactive); in [18], > 100 µM (inactive).

Regarding `COC(=O)CCC(=O)c1ccc2c(c1)CC1(Cc3ccccc3C1)C2`, the GI50 was 14.7 µM (inactive) in experiment [1]; > 100 µM (inactive) in [2]; 80.5 µM (inactive) in [3]; 53.5 µM (inactive) in experiment [4]; > 100 µM (inactive) in experiment [5]; 78.7 µM (inactive) in experiment [6]. Also, the GI50 in [7] is > 100 µM (inactive); in experiment [8], 24.3 µM (inactive); in experiment [9], 17.7 µM (inactive); in experiment [10], 16.4 µM (inactive); in [11] it was 29.4 µM (inactive); in experiment [12], 31.7 µM (inactive). Moreover, the GI50 is 34.7 µM (inactive) in [13], 40.1 µM (inactive) in experiment [16] and > 100 µM (inactive) in experiment [17].

Regarding `Cc1ccc(Cl)c2[nH]c(-c3ccccc3)cc(=O)c12`, the GI50 in experiment [2] is 21.4 µM (inactive); in experiment [3], > 100 µM (inactive); in experiment [4], 76.4 µM (inactive); in experiment [6], 47.2 µM (inactive); in experiment [7], > 100 µM (inactive); in [8] it was 40.9 µM (inactive). The GI50 in experiment [9] is 21.6 µM (inactive); in experiment [10], 38.5 µM (inactive); in experiment [11], 40.9 µM (inactive); in experiment [12], 36.1 µM (inactive); in experiment [13] it was 65.6 µM (inactive); in experiment [14], 39.2 µM (inactive). The results for the GI50 in experiment [15], in experiment [16] and in experiment [17] were 39.2 µM, 46.7 µM (inactive) and 59.2 µM (inactive), respectively.

Turning to `O=C1C2=Cc3ccccc3OC2(O)Oc2cc(O)ccc21` (stereo unspecified), the GI50 in [2], in experiment [3], in experiment [4], in experiment [5], in [6] and in experiment [7] was > 100 µM (inactive) each time. Also, the GI50 in experiment [8] is > 100 µM (inactive); in experiment [9], > 100 µM (inactive); in experiment [10], 27.5 µM (inactive); in experiment [11] it was > 100 µM (inactive); in experiment [12], > 100 µM (inactive); in experiment [13] it was > 100 µM (inactive). Besides, the GI50 in experiment [14] was > 100 µM (inactive); in [15], 97.7 µM; in [16], > 100 µM (inactive); in experiment [18] it was > 100 µM (inactive).

As for `C=C(C)CCC1CCCCC(CN(C)C)C1=O` (stereo unspecified), the GI50 in [1], in experiment [2], in [4], in experiment [5], in experiment [6] and in experiment [7] was > 100 µM (inactive) in each case. Further, the GI50 in experiment [8] is > 100 µM (inactive); in [9], 31.3 µM (inactive); in experiment [10] it was > 100 µM (inactive); in experiment [11], > 100 µM (inactive); in experiment [12], > 100 µM (inactive); in experiment [13], > 100 µM (inactive). Besides, the GI50 in experiment [14] is > 100 µM (inactive); in experiment [15] it was above 100 µM; in experiment [16], > 100 µM (inactive); in experiment [17] it was > 100 µM (inactive).

With `CC(=O)OCC1=C(C)C(OC(=O)C(OC(C)=O)[C@@H](NC(=O)c2ccccc2)c2ccccc2)CCC1(C)C` (stereo partly specified), the GI50 in [1], in experiment [2], in experiment [3], in [4], in experiment [5] and in experiment [6] was > 100 µM (inactive) in each case. For the same compound, the GI50 in experiment [7], in [8], in [9], in experiment [10], in experiment [11] and in [12] was > 100 µM (inactive) in each case. In addition, the GI50 in [14] is > 100 µM (inactive); in experiment [15], above 100 µM; in experiment [16], > 100 µM (inactive); in experiment [18], > 100 µM (inactive).

Turning to `CSC1=N/C(=C\c2cccs2)C(=O)N1CN1CCOCC1`, the GI50 in experiment [1] is 17.4 µM (inactive); in experiment [2], 57.7 µM (inactive); in [3], 44.7 µM (inactive); in experiment [4], > 100 µM (inactive); in experiment [6], 86.7 µM (inactive); in experiment [7] it was > 100 µM (inactive). Besides, the GI50 in [9] was 34.1 µM (inactive); in experiment [10], 27.3 µM (inactive); in experiment [11] it was 45.5 µM (inactive); in experiment [12], 20 µM (inactive); in [13], 52.4 µM (inactive); in experiment [14], 55 µM (inactive). Moreover, the GI50 in [15] was 38.1 µM; in experiment [16] it was > 100 µM (inactive); in experiment [17], 51.6 µM (inactive).

As for `O=C1/C(=N/c2ccccc2)Oc2cc(O)ccc21`, the GI50 in [1], in experiment [2], in experiment [3], in [4], in experiment [5] and in experiment [6] was > 100 µM (inactive) in each case. Besides, the GI50 in experiment [7], in experiment [8], in experiment [9], in experiment [10], in experiment [11] and in experiment [13] was > 100 µM (inactive) in each case. Moreover, the values for the GI50 in experiment [14], in [15] and in experiment [16] were > 100 µM (inactive), above 100 µM and > 100 µM (inactive), respectively.

For the compound `CCOP(=O)(OCC)C1CC(O)C(=O)N1` (stereo unspecified), the GI50 in experiment [1], in experiment [2], in experiment [3], in [4], in experiment [6] and in experiment [7] was > 100 µM (inactive) in each case. Also, the GI50 in experiment [8], in experiment [9], in [10], in experiment [11], in [12] and in experiment [13] was > 100 µM (inactive) throughout. Besides, the GI50 is > 100 µM (inactive) in experiment [14], above 100 µM in experiment [15], > 100 µM (inactive) in experiment [16] and > 100 µM (inactive) in experiment [17].

For the compound `Cc1cc(=O)oc2c(CNC(C(=O)O)C(C)O)c(O)ccc12` (stereo unspecified), the GI50 in experiment [1] was > 100 µM (inactive); in experiment [2], > 100 µM (inactive); in [3] it was 24.8 µM (inactive); in experiment [4], > 100 µM (inactive); in [5], > 100 µM (inactive); in [6], > 100 µM (inactive). Besides, the GI50 in experiment [7], in experiment [8], in experiment [9], in [10], in [11] and in [12] was > 100 µM (inactive) in each case. Further, the GI50 in experiment [13] was > 100 µM (inactive); in experiment [14], > 100 µM (inactive); in experiment [15] it was above 100 µM; in experiment [16], > 100 µM (inactive); in experiment [17], 77.4 µM (inactive).
